Experimental data taken from ChEMBL document CHEMBL1158924, “Cytotoxic constituents of the bark of Plumeria rubra collected in Indonesia” (1990).
Values after ≈ are worked out from the molar mass of the structure shown.

What was measured:
Assay type in all cases: functional
HT-1080 = assay: Cytotoxicity against human HT1080 cells; conditions: read-out: ED50 (the source's name)
[1] = Cytotoxicity against human melanoma cells; conditions: Melanoma cell, read-out: ED50 (the source's name)
[2] = Cytotoxicity against human breast cancer cells; conditions: Cancer cell lines, read-out: ED50 (the source's name)
[3] = Cytotoxicity against human lung cancer cells; conditions: Cancer cell lines, read-out: ED50 (the source's name)
[4] = Cytotoxicity against human colon cancer cells; conditions: Cancer cell lines, read-out: ED50 (the source's name)
KB = assay: Cytotoxicity against human KB cells; conditions: read-out: ED50 (the source's name)
P388 = assay: Cytotoxicity against mouse P388 cells; conditions: read-out: ED50 (the source's name)

COC(=O)C1=CO[C@@H](O[C@@H]2O[C@H](CO)[C@@H](O)[C@H](O)[C@H]2O)[C@H]2[C@@H]1C=C[C@@]21C=C([C@H](C)OC(=O)/C=C/c2ccc(O)cc2)C(=O)O1
EC50 (HT-1080): > 50 µg/mL
EC50 [1]: > 50 µg/mL
EC50 [2]: > 50 µg/mL
EC50 [3]: > 50 µg/mL
EC50 [4]: > 50 µg/mL
EC50 (KB): > 50 µg/mL
EC50 (P388): > 50 µg/mL

C[C@H](O)C1=C[C@@]2(C=C[C@@H]3C(C(=O)O)=CO[C@@H](O[C@@H]4O[C@H](CO)[C@@H](O)[C@H](O)[C@H]4O)[C@@H]32)OC1=O
EC50 (HT-1080): > 50 µg/mL
EC50 [1]: > 50 µg/mL
EC50 [2]: > 50 µg/mL
EC50 [3]: > 50 µg/mL
EC50 [4]: > 50 µg/mL
EC50 (KB): > 50 µg/mL
EC50 (P388): > 50 µg/mL

COC(=O)C1=CO[C@@H](O[C@@H]2O[C@H](CO)[C@@H](O)[C@H](O)[C@H]2O)[C@H]2[C@@H]1C=C[C@@]21C=C([C@H](C)O)C(=O)O1 [PLUMIERIDE]
EC50 (HT-1080): > 50 µg/mL
EC50 [1]: > 50 µg/mL
EC50 [2]: > 50 µg/mL
EC50 [3]: > 50 µg/mL
EC50 [4]: > 50 µg/mL
EC50 (KB): > 50 µg/mL
EC50 (P388): > 50 µg/mL

COC(=O)[C@@H]1CO[C@@H](O)[C@H]2[C@@H]1C=C[C@@]21C=C([C@H](C)O)C(=O)O1
EC50 (HT-1080): > 50 µg/mL
EC50 [1]: > 50 µg/mL
EC50 [2]: > 50 µg/mL
EC50 [3]: > 50 µg/mL
EC50 [4]: > 50 µg/mL
EC50 (KB): > 50 µg/mL
EC50 (P388): > 50 µg/mL

C/C=C1/C(=O)O[C@]23C=C[C@@H]4C(C(=O)OC)=CO[C@H](O[C@@H]12)[C@@H]43 [PLUMERICIN]
EC50 (HT-1080): 0.2 µg/mL (≈ 0.689 µM)
EC50 [1]: 2.8 µg/mL (≈ 9.65 µM)
EC50 [2]: 0.4 µg/mL (≈ 1.38 µM)
EC50 [3]: 0.2 µg/mL (≈ 0.689 µM)
EC50 [4]: 0.1 µg/mL (≈ 0.345 µM)
EC50 (KB): 0.3 µg/mL (≈ 1.03 µM)
EC50 (P388): 1.2 µg/mL (≈ 4.13 µM)

C/C=C1/C(=O)O[C@@]23C=C[C@H]4C[C@H](O)O[C@@H](O[C@H]12)[C@H]43 [ALLAMCIN]
EC50 (HT-1080): 3.1 µg/mL (≈ 12.4 µM)
EC50 [1]: 0.9 µg/mL (≈ 3.6 µM)
EC50 [2]: 0.1 µg/mL (≈ 0.4 µM)
EC50 [3]: 1.2 µg/mL (≈ 4.8 µM)
EC50 [4]: 0.3 µg/mL (≈ 1.2 µM)
EC50 (KB): 0.3 µg/mL (≈ 1.2 µM)
EC50 (P388): 0.2 µg/mL (≈ 0.799 µM)

COC(=O)[C@@H]1CO[C@H](O)[C@H]2[C@@H]1C=C[C@@]21C=C([C@H](C)O)C(=O)O1
EC50 (HT-1080): > 50 µg/mL
EC50 [1]: > 50 µg/mL
EC50 [2]: > 50 µg/mL
EC50 [3]: > 50 µg/mL
EC50 [4]: > 50 µg/mL
EC50 (KB): > 50 µg/mL
EC50 (P388): > 50 µg/mL

COc1cc([C@H]2OC[C@H]3[C@@H]2CO[C@@H]3c2cc(OC)c(O[C@@H]3O[C@H](CO)[C@@H](O)[C@H](O)[C@H]3O)c(OC)c2)cc(OC)c1O[C@@H]1O[C@H](CO)[C@@H](O)[C@H](O)[C@H]1O [LIRIODENDRIN]
EC50 (HT-1080): 8.9 µg/mL (≈ 12 µM)
EC50 [1]: 19 µg/mL (≈ 25.6 µM)
EC50 [2]: 30 µg/mL (≈ 40.4 µM)
EC50 [3]: 6 µg/mL (≈ 8.08 µM)
EC50 [4]: 16 µg/mL (≈ 21.5 µM)
EC50 (KB): 6 µg/mL (≈ 8.08 µM)
EC50 (P388): 2.4 µg/mL (≈ 3.23 µM)

COC1=CC(=O)C(OC)=CC1=O
EC50 (HT-1080): 3.4 µg/mL (≈ 20.2 µM)
EC50 [1]: 2.7 µg/mL (≈ 16.1 µM)
EC50 [2]: 5.2 µg/mL (≈ 30.9 µM)
EC50 [3]: 1.3 µg/mL (≈ 7.73 µM)
EC50 [4]: 1.4 µg/mL (≈ 8.33 µM)
EC50 (KB): 3.8 µg/mL (≈ 22.6 µM)
EC50 (P388): 2.5 µg/mL (≈ 14.9 µM)

C/C=C/C=C1\C=Cc2c(C(=O)OC)coc(=O)c21 [FULVOPLUMIERIN]
EC50 (HT-1080): 3.4 µg/mL (≈ 13.9 µM)
EC50 [1]: 0.7 µg/mL (≈ 2.87 µM)
EC50 [2]: 3.5 µg/mL (≈ 14.3 µM)
EC50 [3]: 3 µg/mL (≈ 12.3 µM)
EC50 [4]: 1.3 µg/mL (≈ 5.32 µM)
EC50 (KB): 4.6 µg/mL (≈ 18.8 µM)
EC50 (P388): 2.5 µg/mL (≈ 10.2 µM)

C/C=C1/C(=O)O[C@@]23C=C[C@H]4[C@@H](C(=O)OC)[C@H](O)O[C@@H](O[C@H]12)[C@H]43 [ALLAMANDIN]
EC50 (HT-1080): 0.8 µg/mL (≈ 2.59 µM)
EC50 [1]: 0.3 µg/mL (≈ 0.973 µM)
EC50 [2]: 0.4 µg/mL (≈ 1.3 µM)
EC50 [3]: 0.7 µg/mL (≈ 2.27 µM)
EC50 [4]: 0.3 µg/mL (≈ 0.973 µM)
EC50 (KB): 0.4 µg/mL (≈ 1.3 µM)
EC50 (P388): 0.2 µg/mL (≈ 0.649 µM)
